Data published in patent US5231107A, “Derivatives of the oxime of 1,2,5,6-tetrahydropyridine 3-carboxaldehyde, the process for their preparation, their use as medicaments and the compositions containing them” (priority 1987, dated 1993).
Read-outs that look alike come from different tables or passages of the source.

Columns and labels:
[1] = Variation of the body temperature (duration of action); assay type: in vivo, male mice (CD1 Charles Rivers)
Description: (§1) The test is carried out on male mice (CD1 Charles Rivers) weighing 25-30 g, which have fasted for 6 hours.
The temperature of the body is noted by means of a thermocouple inserted about 1.5 cm in the rectum and connected to an electric temperature recorder. […]
The duration of action of the products is determined, using the doses able to reduce the temperature by 1° to 1.5° C.

in vivo [2] = assay: in vivo; set-up: species or system male mice (CD1 Charles Rivers); conditions: mouse, in vivo; oral route; male CD1 mice; method of Miller and Tainter; read-out: DE50 (dose which causes diarrhoea in 50% of the animals)
Description: The test is carried out on male mice (CD1 Charles Rivers) weighing 25 to 30 g, which have fasted for 6 hours. The product dissolved at 5% in methocel is administered by oral route by means of an oesophage probe.
Control animals receive only the excipient.
After treatment, the animals are placed separately in cages of which the base is covered with blotting paper, and they are put under observation for 30, 60, 120 and 180 minutes.
The sheets of absorbent paper are changed after each observation.
The consistency of the feces is evaluated according to the method of Randall and Baruth (Arch. Int. Pharmacodyn. 220, 94, 1976) according to the following scale of values.
1: feces slightly soft, with or without a damp halo,
2: feces slightly soft, with a well-defined circle of humidity,
3: feces soft with a large circle of humidity,
4: feces without consistency with a very large circle of humidity.
For each product, the dose is noted which causes diarrhoea in 50% of the animals according to the method of Miller and Tainter (Proc. Soc. Exp. Biol. Med., 57, 261, 1944).

in vivo [3] = conditions: mouse, po
Description: The test was carried out on male mice (CD1 Charles Rivers), of 22 to 24 g, without food for 16 hours. […] The mortality is noted during the 7 days following the treatment.

[4] = tested on: ileum isolated from guinea-pig; assay: Test of ileum isolated from guinea-pig; conditions: Cavia porcellus, agonist activity, Tyrode solution, 37° C., read-out: pD2 (negative logarithm of the dose which produces 50% of the maximum effect) (converted)
Description: Pieces of ileum are removed from guinea-pigs killed by decapitation. The isolated ileum is placed in 10 cm^3 of Tyrode solution at 37° C. and aerated with a mixture of oxygen (95%) and carbon dioxide gas (5%). The contractions due to the products are registered by means of a detector connected to a polygraph. […].
The possible antagonist activity of the products is tested vis-a-vis acetylcholine.
The agonist activity is expressed in pD2 (negative logarithm of the dose which produces 50% of the maximum effect).
The antagonist activity is expressed in DE50 (dose reducing by 50% the maximum response induced by acetylcholine).

Hypothermic activity = assay type: in vivo, male mice (CD1 Charles Rivers); conditions: Mus musculus, read-out: Effective dose (-1° C.)
Description: as §1
The temperature of the body is noted by means of a thermocouple inserted about 1.5 cm in the rectum and connected to an electric temperature recorder.
The products are administered by oral or sub-cutaneous route and the temperatures are noted at the instant 0 and at 30 minutes, 1 hour, 2 hours and 2-and-a-half hours after treatment.
The degree of hypothermia is evaluated as the difference between the treated animals and the controls, and the dose necessary to reduce the body temperature by 1° C. is noted.

SMILES: COC(=O)C1=CCCN(C)C1 [Arecoline HBr, reference compound]
- Variations of the body temperature ([1]; 3.5 mg/kg sc, 0 min): -0.1 °C
- Variations of the body temperature ([1]; 3.5 mg/kg sc, 30 min): -1.5 °C
- Variations of the body temperature ([1]; 3.5 mg/kg sc, 60 min): -0.1 °C
- Variations of the body temperature ([1]; 3.5 mg/kg sc, 120 min): +0.2 °C
- Variations of the body temperature ([1]; 3.5 mg/kg sc, 180 min): +0.2 °C
- Variations of the body temperature ([1]; 200 mg/kg os, 0 min): +0.1 °C
- Variations of the body temperature ([1]; 200 mg/kg os, 30 min): -1.1 °C
- Variations of the body temperature ([1]; 200 mg/kg os, 60 min): -1.0 °C
- Variations of the body temperature ([1]; 200 mg/kg os, 120 min): -0.2 °C
- Variations of the body temperature ([1]; 200 mg/kg os, 180 min): -0.1 °C

SMILES: CCOC(=O)N1CCC=C(C=NOC)C1 [Example 2, Methyl ether of 1-ethoxycarbonyl-1,2,5,6-tetrahydropyridin-3-carboxaldehydeoxime]
- ED50 (in vivo [2]): 25 mg/kg
- LD50 at 168 h (in vivo [3]): 175 mg/kg
- EC50 [4]: 33.9 µM
- Variations of the body temperature ([1]; 5. mg/kg os, 0 min): +0.2 °C
- Variations of the body temperature ([1]; 5. mg/kg os, 30 min): -1.2 °C
- Variations of the body temperature ([1]; 5. mg/kg os, 60 min): -1.1 °C
- Variations of the body temperature ([1]; 5. mg/kg os, 120 min): -0.1 °C
- Variations of the body temperature ([1]; 5. mg/kg sc, 0 min): +0.2 °C
- Variations of the body temperature ([1]; 5. mg/kg sc, 30 min): -1.5 °C
- Variations of the body temperature ([1]; 5. mg/kg sc, 60 min): -1.4 °C
- Variations of the body temperature ([1]; 5. mg/kg sc, 120 min): -0.1 °C
- ED (-1 C) (Hypothermic activity; oral route (O.R.)): 3.9 mg/kg
- ED (-1 C) (Hypothermic activity; sub-cutaneous route (SC.R)): 3.6 mg/kg

SMILES: C=CCOC(=O)N1CCC=C(C=NOC)C1 [Example 4, Methyl ether of 1-allyloxycarbonyl-1,2,5,6-tetrahydropyridin-3-carboxaldehyde oxime]
- ED50 (in vivo [2]): 3 mg/kg
- LD50 at 168 h (in vivo [3]): 175 mg/kg
- EC50 [4]: > 100 µM
- Variations of the body temperature ([1]; 2. mg/kg os, 0 min): -0.1 °C
- Variations of the body temperature ([1]; 2. mg/kg os, 30 min): -1.2 °C
- Variations of the body temperature ([1]; 2. mg/kg os, 60 min): -1.1 °C
- Variations of the body temperature ([1]; 2. mg/kg os, 120 min): -0.1 °C
- Variations of the body temperature ([1]; 2. mg/kg os, 180 min): -0.1 °C
- Variations of the body temperature ([1]; 2. mg/kg sc, 0 min): -0.1 °C
- Variations of the body temperature ([1]; 2. mg/kg sc, 30 min): -0.9 °C
- Variations of the body temperature ([1]; 2. mg/kg sc, 60 min): -1.0 °C
- Variations of the body temperature ([1]; 2. mg/kg sc, 120 min): -0.2 °C
- Variations of the body temperature ([1]; 2. mg/kg sc, 180 min): -0.1 °C
- ED (-1 C) (Hypothermic activity; oral route (O.R.)): 1.6 mg/kg
- ED (-1 C) (Hypothermic activity; sub-cutaneous route (SC.R)): 1.8 mg/kg

SMILES: CON=CC1=CCCN(C(=O)Oc2ccccc2)C1 [Example 6, Methyl ether of 1-phenyloxycarbonyl-1,2,5,6-tetrahydropyridin-3-carboxaldehyde oxime]
- ED50 (in vivo [2]): 100 mg/kg
- LD50 at 168 h (in vivo [3]): 500 mg/kg
- EC50 [4]: > 100 µM
- Variations of the body temperature ([1]; 3.5 mg/kg sc, 0 min): -0.1 °C
- Variations of the body temperature ([1]; 3.5 mg/kg sc, 30 min): -0.6 °C
- Variations of the body temperature ([1]; 3.5 mg/kg sc, 60 min): -1.4 °C
- Variations of the body temperature ([1]; 3.5 mg/kg sc, 120 min): -0.9 °C
- Variations of the body temperature ([1]; 3.5 mg/kg sc, 180 min): 0.1 °C
- Variations of the body temperature ([1]; 7.5 mg/kg os, 0 min): -0.1 °C
- Variations of the body temperature ([1]; 7.5 mg/kg os, 30 min): -1.1 °C
- Variations of the body temperature ([1]; 7.5 mg/kg os, 60 min): -1.6 °C
- Variations of the body temperature ([1]; 7.5 mg/kg os, 120 min): -0.6 °C
- ED (-1 C) (Hypothermic activity; oral route (O.R.)): 4.6 mg/kg
- ED (-1 C) (Hypothermic activity; sub-cutaneous route (SC.R)): 2.3 mg/kg

SMILES: CON=CC1=CCCN(C(=O)Oc2ccc(Cl)cc2)C1 [Example 12, Methyl ether of 1-parachlorophenyloxy-carbonyl-1,2,5,6-tetrahydropyridin-3-carboxaldehyde oxime]
- ED50 (in vivo [2]): > 50 mg/kg
- LD50 at 168 h (in vivo [3]): > 1000 mg/kg
- EC50 [4]: > 100 µM
- Variations of the body temperature ([1]; 3.12 mg/kg os, 0 min): +0.1 °C
- Variations of the body temperature ([1]; 3.12 mg/kg os, 30 min): -0.9 °C
- Variations of the body temperature ([1]; 3.12 mg/kg os, 60 min): -1.4 °C
- Variations of the body temperature ([1]; 3.12 mg/kg os, 120 min): -0.3 °C
- Variations of the body temperature ([1]; 3.12 mg/kg sc, 0 min): -0.1 °C
- Variations of the body temperature ([1]; 3.12 mg/kg sc, 30 min): -0.1 °C
- Variations of the body temperature ([1]; 3.12 mg/kg sc, 60 min): -1.1 °C
- Variations of the body temperature ([1]; 3.12 mg/kg sc, 120 min): -1.2 °C
- Variations of the body temperature ([1]; 3.12 mg/kg sc, 180 min): -0.5 °C
- ED (-1 C) (Hypothermic activity; oral route (O.R.)): 2.2 mg/kg
- ED (-1 C) (Hypothermic activity; sub-cutaneous route (SC.R)): 2.9 mg/kg

SMILES: CON=CC1=CCCN(C(=O)Oc2ccc(Br)cc2)C1 [Example 19, 1-(4-bromophenyloxycarbonyl)-1,2,5,6-tetrahydropyridine-3-carboxaldehyde-O-methyloxime]
- ED50 (in vivo [2]): > 50 mg/kg
- LD50 at 168 h (in vivo [3]): > 1000 mg/kg
- EC50 [4]: > 100 µM
- ED (-1 C) (Hypothermic activity; oral route (O.R.)): 1.7 mg/kg
- ED (-1 C) (Hypothermic activity; sub-cutaneous route (SC.R)): 1.3 mg/kg

SMILES: CON=CC1=CCCN(C(=O)Oc2ccc(F)cc2)C1 [Example 20, 1(4-fluorophenyloxycarbonyl)-1,2,5,6-tetrahydropyridine-3-carboxaldehyde-O-methyloxime]
- ED50 (in vivo [2]): > 50 mg/kg
- LD50 at 168 h (in vivo [3]): 500 mg/kg
- EC50 [4]: > 100 µM
- ED (-1 C) (Hypothermic activity; oral route (O.R.)): 3.2 mg/kg
- ED (-1 C) (Hypothermic activity; sub-cutaneous route (SC.R)): 1.5 mg/kg

SMILES: CON=CC1=CCCN(C(=O)Oc2ccc(C)cc2)C1 [Example 21, 1-(4-methylphenyloxycarbonyl)-1,2,5,6-tetrahydropyridine-3-carboxaldehyde-O-methyloxime]
- ED50 (in vivo [2]): > 50 mg/kg
- LD50 at 168 h (in vivo [3]): 250 mg/kg
- EC50 [4]: > 100 µM
- ED (-1 C) (Hypothermic activity; oral route (O.R.)): 1.5 mg/kg
- ED (-1 C) (Hypothermic activity; sub-cutaneous route (SC.R)): 1.2 mg/kg

SMILES: CON=CC1=CCCN(C(=O)Oc2ccc(C(C)(C)CC(C)(C)C)cc2)C1 [Example 22, 1-[4-(1,1,3,3-tetramethylbutyl)phenyloxycarbonyl]-1,2,5,6-tetrahydropyridine-3-carboxaldehyde-O-methyloxime]
- ED50 (in vivo [2]): > 50 mg/kg
- LD50 at 168 h (in vivo [3]): 500 mg/kg
- EC50 [4]: 100 µM
- ED (-1 C) (Hypothermic activity; oral route (O.R.)): 7 mg/kg
- ED (-1 C) (Hypothermic activity; sub-cutaneous route (SC.R)): 15 mg/kg
